Measurements as given in article PMC12040169 (PLOS Biology, 2025).

Test: in vitro
Settings: human, hela cells, % viability

CCOc1ccc(-c2cn(S(=O)(=O)c3cccc4nsnc34)nc2N)cc1 [CBK267883]
viability at 28.5 h, 10 µM: 102%

CN1CCN(C2=NC(=O)CC(C(=O)Nc3ccccc3)N2)CC1 (centres unmarked) [CBK267884]
viability at 28.5 h, 10 µM: 97.1%

O=C(O)CCc1ccc(-c2cccs2)n1CCOc1ccccc1Cl [CBK267885]
viability at 28.5 h, 10 µM: 89%

Cc1ccc(N(C(C)C(=O)Nc2ccccc2-c2ccccc2)S(C)(=O)=O)cc1 (centres unmarked) [CBK267889]
viability at 28.5 h, 10 µM: 105%

Cc1cc(C)cc(OCc2nnc(SCC(=O)Nc3cc(C(F)(F)F)ccc3Cl)o2)c1 [CBK267890]
viability at 28.5 h, 10 µM: 94.6%

O=C(Cn1ncc2ccccc2c1=O)NNC(=S)NC1CC2CCC1C2 (centres unmarked) [CBK267892]
viability at 28.5 h, 10 µM: 106%

CN1CCN(c2ccccc2NC(=O)c2cccc3c(Br)cccc23)CC1 [CBK267894]
viability at 28.5 h, 10 µM: 92.9%

CCn1cc(C(=O)O)c(=O)c2cnc(N3CCN(C(=S)Nc4ccc5c(c4)OCCO5)CC3)nc21 [CBK267895]
viability at 28.5 h, 10 µM: 95.8%

O=C(NCc1ccccc1)c1ccc(NC(=O)c2cc(-n3cnnc3)ccc2Cl)cc1 [CBK267896]
viability at 28.5 h, 10 µM: 99.2%

N#C/C(=C\c1cn(CCC(N)=O)c2ccccc12)Sc1nc2ccccc2s1 [CBK267897]
viability at 28.5 h, 10 µM: 103%

O=C(CSc1nnnn1C1CC2CCC1C2)Nc1ccnc2ccccc12 (centres unmarked) [CBK267901]
viability at 28.5 h, 10 µM: 89.4%

C/C(N)=C(/C#N)C(NC(=O)C1CCCCC1)(C(F)(F)F)C(F)(F)F [CBK267902]
viability at 28.5 h, 10 µM: 91.1%

O=C1c2ccccc2S(=O)(=O)N1CC(O)Cn1ccc2ccccc21 (centres unmarked) [CBK267905]
viability at 28.5 h, 10 µM: 97.6%

COc1cccc(CNc2ccc(S(N)(=O)=O)cc2)c1OCc1ccccc1F [CBK267906]
viability at 28.5 h, 10 µM: 108%

COc1cc(S(=O)(=O)NC2CC(C)(C)NC(C)(C)C2)ccc1Br [CBK267908]
viability at 28.5 h, 10 µM: 87.4%

CN1CCN(c2ccccc2NC(=S)NC(=O)c2ccco2)CC1 [CBK267909]
viability at 28.5 h, 10 µM: 85.2%

Cc1nnc(NCCN2CCOCC2)nc1O [CBK267912]
viability at 28.5 h, 10 µM: 98.5%

CC(CCc1ccccc1)NC(=O)CCC(=O)O (centres unmarked) [CBK267918]
viability at 28.5 h, 10 µM: 86.6%

CC(C)NS(=O)(=O)c1ccc(OCC(=O)Nc2ccc3c(c2)OCO3)c(Cl)c1 [CBK267919]
viability at 28.5 h, 10 µM: 92.5%

CC(C)NS(=O)(=O)c1ccc(NC(=O)COc2ccc3ccccc3c2Br)cc1 [CBK267920]
viability at 28.5 h, 10 µM: 94.3%

Cc1ccc(OCCSc2nnc3[nH]c4ccccc4n23)cc1 [CBK267922]
viability at 28.5 h, 10 µM: 96.2%

Cc1cc(Cn2ccc(C(F)(F)F)n2)c(C)c(-c2c(C#N)c(N)nc3c2CCCCC3)c1 [CBK267928]
viability at 28.5 h, 10 µM: 104%

CS(=O)(=O)N(CC(=O)Nc1ccccc1C(=O)N1CCOCC1)c1ccc(F)c(Cl)c1 [CBK267931]
viability at 28.5 h, 10 µM: 98.1%

Cc1[nH]c2ccccc2c1C(=O)CSc1nc2scc(-c3ccco3)c2c(=O)n1-c1ccccc1 [CBK267933]
viability at 28.5 h, 10 µM: 93.3%

CS(=O)(=O)N1CCN(c2ccc(NC(=O)CSc3nc(-c4ccccc4)cs3)cc2)CC1 [CBK267934]
viability at 28.5 h, 10 µM: 91.2%

CC(=O)Nc1ccc(S(=O)(=O)NC2(C(F)(F)F)C(=O)Nc3c2c(=O)[nH]c(=O)n3CCc2ccccc2)cc1 (centres unmarked) [CBK267937]
viability at 28.5 h, 10 µM: 104%

CN1CCN(c2ccccc2NC(=O)CSc2ccc(Cl)cc2)CC1 [CBK267941]
viability at 28.5 h, 10 µM: 98.9%

Nn1c(SCCCCSc2nnc(C(F)(F)F)n2N)nnc1C(F)(F)F [CBK267946]
viability at 28.5 h, 10 µM: 98.8%

COc1ccc(-c2cc3ccc(OC(C)C(=O)O)cc3oc2=O)cc1 (centres unmarked) [CBK267947]
viability at 28.5 h, 10 µM: 101%

Cc1ccccc1NS(=O)(=O)c1ccc(OCC(=O)N2CCN(C)CC2)cc1 [CBK267948]
viability at 28.5 h, 10 µM: 88.4%

Cc1ccc(C)c(N2CCN(CCCNC(=S)Nc3ccc(Cl)cc3Cl)CC2)c1 [CBK267951]
viability at 28.5 h, 10 µM: 99.6%

O=C(Nc1nc2n(n1)C(c1ccc(F)cc1)CC(c1ccccc1)N2)c1cccnc1 (centres unmarked) [CBK267953]
viability at 28.5 h, 10 µM: 88.9%

O=C(O)CCc1ccc(-c2ccccc2)n1CC1CCCO1 (centres unmarked) [CBK267955]
viability at 28.5 h, 10 µM: 102%

C=CCn1c(SCC(=O)N2CCN(c3ccccc3)CC2)nnc1-c1ccc(N)cc1 [CBK267956]
viability at 28.5 h, 10 µM: 99.8%

O=C(c1ccc(NS(=O)(=O)c2ccccc2)cc1)N1CCN(Cc2ccc3c(c2)OCO3)CC1 [CBK267957]
viability at 28.5 h, 10 µM: 102%

COc1ccc(S(=O)(=O)N2CCC(C(=O)Nc3ccccc3SC)CC2)cc1C [CBK267960]
viability at 28.5 h, 10 µM: 96.2%

Cc1cccc(OCCCC(=O)Nc2ccc(S(N)(=O)=O)cc2)c1C [CBK267963]
viability at 28.5 h, 10 µM: 90.8%

COCCN1CCn2c(nc3cc(NC(=O)c4cccc([N+](=O)[O-])c4)ccc32)C1 [CBK267965]
viability at 28.5 h, 10 µM: 98.9%

N#C/C(=C\c1cn(CCC(N)=O)c2ccccc12)c1nc2ccccc2[nH]1 [CBK267966]
viability at 28.5 h, 10 µM: 104%

N#CCCn1cc(C(=O)Oc2ccc(-c3ccccc3)cc2)c(-c2cccc([N+](=O)[O-])c2)n1 [CBK267968]
viability at 28.5 h, 10 µM: 105%

CCOC(=O)c1c(NC(=O)CSc2nncn2C)sc(C)c1C [CBK267970]
viability at 28.5 h, 10 µM: 89.8%

CN(C)S(=O)(=O)N(CC(=O)NCc1ccco1)c1ccccc1 [CBK267971]
viability at 28.5 h, 10 µM: 97.3%

O=C(O)C1CCCCC1C(=O)NCCc1ccc(Cl)cc1 (centres unmarked) [CBK267972]
viability at 28.5 h, 10 µM: 98.5%

CCCc1oc(C(=O)O)cc1CN1CCCCC1 [CBK267973C]
viability at 28.5 h, 10 µM: 99%

CN1CCN(Cc2c(O)ccc3cc(-c4ccc(F)cc4)c(=O)oc23)CC1 [CBK267976]
viability at 28.5 h, 10 µM: 111%

Oc1ccc(CN2CCN(c3ccc(F)cc3)CC2)c2cccnc12 [CBK267985]
viability at 28.5 h, 10 µM: 117%

Cn1c2ccccc2c2nnc(SCCc3ccccc3)nc21 [CBK267986]
viability at 28.5 h, 10 µM: 109%

COCCN1CCn2c(nc3cc(NC(=O)c4ccco4)ccc32)C1 [CBK267990]
viability at 28.5 h, 10 µM: 88.2%

S=C(Nc1ccccc1)N(Cc1ccccc1)Cc1ccncc1 [CBK267991]
viability at 28.5 h, 10 µM: 96.8%

Cc1cccc(C(C)C)c1NC(=O)C1Cc2ccccc2CN1S(=O)(=O)c1ccc(F)cc1 (centres unmarked) [CBK267992]
viability at 28.5 h, 10 µM: 101%

COc1cccc(/C=C(/C#N)c2ccc(F)cc2)c1OCc1cccc(C(=O)O)c1 [CBK267993]
viability at 28.5 h, 10 µM: 102%

CN(C)S(=O)(=O)N(CC(=O)N1CCN(Cc2ccc3c(c2)OCO3)CC1)c1ccccc1 [CBK267994]
viability at 28.5 h, 10 µM: 102%

COc1ccc(S(=O)(=O)N(CC(=O)O)C2CCCCC2)cc1Cl [CBK267997]
viability at 28.5 h, 10 µM: 81.5%

Cc1cccc(C)c1N1CCN(CCn2c(=S)[nH]c3ccccc3c2=O)CC1 [CBK267998]
viability at 28.5 h, 10 µM: 89.9%

Nc1ccc(S(=O)(=O)NC2(C(F)(F)F)NC(=O)N(c3ccccc3Cl)C2=O)cc1 (centres unmarked) [CBK268003]
viability at 28.5 h, 10 µM: 107%

COc1cccc(C(=O)Nc2cc3c(cc2C(O)c2ccccc2Cl)OCCO3)c1 (centres unmarked) [CBK268004]
viability at 28.5 h, 10 µM: 99.3%

O=C(Nc1cccc2cccnc12)c1ccc([N+](=O)[O-])o1 [CBK268007]
viability at 28.5 h, 10 µM: 61.1%

O=C(CSc1nnc(Cc2ccccc2)o1)N1c2ccccc2Sc2ccccc21 [CBK268008]
viability at 28.5 h, 10 µM: 96.4%

CCOc1c(Br)cc(CNc2nc[nH]n2)cc1OC [CBK268009]
viability at 28.5 h, 10 µM: 104%

Cc1ccc(Cl)c(N2CCN(CCCn3c(=S)[nH]c4ccccc4c3=O)CC2)c1 [CBK268011]
viability at 28.5 h, 10 µM: 90%

Cc1cc(C)cc(OCc2nnc(SCC(=O)N3CCN(c4ccccc4)CC3)o2)c1 [CBK268012]
viability at 28.5 h, 10 µM: 96.7%

O=S(=O)(NCCSc1nnnn1-c1ccccc1)c1cccs1 [CBK268013]
viability at 28.5 h, 10 µM: 112%

Nc1cc(O)nc(SCC(=O)N2CCN(C(c3ccccc3)c3ccccc3)CC2)n1 [CBK268014]
viability at 28.5 h, 10 µM: 94%

O=C(O)CN(c1ccc2c(c1)OCCO2)S(=O)(=O)c1ccccc1 [CBK268017]
viability at 28.5 h, 10 µM: 115%

O=C(CSc1nc(-c2cccc([N+](=O)[O-])c2)cs1)NCC1CCCO1 (centres unmarked) [CBK268020]
viability at 28.5 h, 10 µM: 92.8%

CCn1c(SCC(=O)Nc2ccc(OC)c(Cl)c2)nnc1-c1ccccc1O [CBK268021]
viability at 28.5 h, 10 µM: 101%

O=C(NCCN1CCOCC1)c1cc(-n2cnnc2)ccc1Cl [CBK268023]
viability at 28.5 h, 10 µM: 97.1%

CC(=O)Nc1c(O)nc(SCC(=O)Nc2ccccc2C(N)=O)[nH]c1=O [CBK268031]
viability at 28.5 h, 10 µM: 97.8%

Cc1ccc(OCCCC(=O)Nc2ccc(C(N)=O)cc2)c(C)c1 [CBK268032]
viability at 28.5 h, 10 µM: 93.8%

CC(c1ccccc1)N1CCn2c(nc3cc(NC(=O)COc4ccccc4)ccc32)C1 (centres unmarked) [CBK268033]
viability at 28.5 h, 10 µM: 105%

O=C(CC1Nc2cccc3cccc(c23)NC1=O)Nc1ccccc1 (centres unmarked) [CBK268035]
viability at 28.5 h, 10 µM: 87.2%

Cc1nn2c(CN(C(=O)COc3ccccc3)c3ccccc3)nnc2c2ccccc12 [CBK268036]
viability at 28.5 h, 10 µM: 83.4%

O=C(OCc1ccc(Sc2ccc([N+](=O)[O-])cc2Cl)cc1)c1cnccn1 [CBK268037]
viability at 28.5 h, 10 µM: 93.4%

O=C(NCCN1CCN(Cc2ccccc2Cl)CC1)Nc1ccccc1 [CBK268039]
viability at 28.5 h, 10 µM: 93.4%

CC1CCN(S(=O)(=O)c2ccc(NC(=O)CCn3c(=O)oc4ccccc43)cc2)CC1 [CBK268040]
viability at 28.5 h, 10 µM: 97.1%

CCOc1ccccc1CNCc1ccccn1 [CBK268041C]
viability at 28.5 h, 10 µM: 103%

CC(=O)C1=C(C)N(CC2CCCO2)C(=O)C1(NC(=O)c1ccc(C(C)(C)C)cc1)C(F)(F)F (centres unmarked) [CBK268043]
viability at 28.5 h, 10 µM: 93.2%

O=c1c2c([nH]c3nc(NCc4ccc(OCc5ccccc5)cc4)nn13)CCC2 [CBK268044]
viability at 28.5 h, 10 µM: 96.9%

Cc1ccc(CSCCNS(=O)(=O)c2ccc3ccccc3c2)cc1 [CBK268048]
viability at 28.5 h, 10 µM: 107%

CCc1ccc(OC(C)c2nnc(SCC(=O)N3c4ccccc4Sc4ccccc43)n2C)cc1 (centres unmarked) [CBK268058]
viability at 28.5 h, 10 µM: 92.3%

O=C(CSCc1ccc(Br)cc1)N1CCN(Cc2ccc3c(c2)OCO3)CC1 [CBK268059]
viability at 28.5 h, 10 µM: 89.7%

O=C(O)c1cccc(CSc2nnc(Cc3ccccc3)o2)c1 [CBK268060]
viability at 28.5 h, 10 µM: 92%

Cc1ccc(SCc2ccc(C(=O)NCc3cccnc3)cc2)cc1 [CBK268063]
viability at 28.5 h, 10 µM: 96.9%

COC(=O)c1ccc(NC(=O)CNc2ccccc2)cc1 [CBK268064]
viability at 28.5 h, 10 µM: 110%

O=C(O)CSc1nc(O)c2c(-c3ccccc3)csc2n1 [CBK268067]
viability at 28.5 h, 10 µM: 107%

CSc1nsc(SCC(=O)N2CCN(C(c3ccccc3)c3ccccc3)CC2)n1 [CBK268071]
viability at 28.5 h, 10 µM: 89.2%
